Reference: patent US20230157952A1, “METHOD FOR IMPROVING THE STABILITY OF A PHARMACEUTICAL COMPOSITION COMPRISING A HIGH PENETRATION DRUG, AND THE PHARMACEUTICAL COMPOSITION OBTAINED THEREFROM” (Techfields Inc., priority 2020, published 2023)
Blank lines part the entries; values can stand above or below the compound they belong to.

Experiment: Effect of concentration on the stability of the solution (purity over time)
Details: for Stability of common ester over the concentrations tested: 0.01% to 10% (or higher) in 50% ethanol at 25° C.; for Purity (%) at Day 3 / Purity (%) at Day 7 / Purity (%) at hr 0 / Purity (%) at hr 24 / Purity(%) at Day 14 / Purity(%) at Day 28 / Purity(%) at Day 21: 25° C.

Stability when the concentration is 0.1% or lower (in water at 25° C.): not stable
SMILES: CCN(CC)CCOC(=O)CCCc1ccc(N(CCS(C)(=O)=O)CCS(C)(=O)=O)cc1.Cl [2-(diethylamino)ethyl 4-[bis(2-methylsulfonylethyl)amino]benzenebutyrate.HCl]

SMILES: CCOC(=O)c1ccccc1 [Ethyl benzoate, reference compound]
Stability of common ester over the concentrations tested: very stable | Purity (%) at Day 3 (0.01 wt % in 50% ethanol): 97.4% | Purity (%) at Day 7 (0.01 wt % in 50% ethanol): 96.9% | Purity (%) at hr 0 (0.01 wt % in 50% ethanol): 97.8% | Purity (%) at hr 24 (0.01 wt % in 50% ethanol): 97.6% | Purity(%) at Day 14 (0.01 wt % in 50% ethanol): 96.1% | Purity(%) at Day 28 (0.01 wt % in 50% ethanol): 95.3% | Purity (%) at Day 3 (0.1 wt % in 50% ethanol): 97.6% | Purity (%) at Day 7 (0.1 wt % in 50% ethanol): 97.5% | Purity (%) at hr 0 (0.1 wt % in 50% ethanol): 97.9% | Purity (%) at hr 24 (0.1 wt % in 50% ethanol): 97.7% | Purity(%) at Day 14 (0.1 wt % in 50% ethanol): 97.2% | Purity(%) at Day 28 (0.1 wt % in 50% ethanol): 95.9% | Purity (%) at Day 3 (1 wt % in 50% ethanol): 97.7% | Purity (%) at Day 7 (1 wt % in 50% ethanol): 97.6% | Purity (%) at hr 0 (1 wt % in 50% ethanol): 98.0% | Purity (%) at hr 24 (1 wt % in 50% ethanol): 97.8% | Purity(%) at Day 14 (1 wt % in 50% ethanol): 97.5% | Purity(%) at Day 28 (1 wt % in 50% ethanol): 97.3% | Purity (%) at Day 3 (3 wt % in 50% ethanol): 97.8% | Purity (%) at Day 7 (3 wt % in 50% ethanol): 97.7% | Purity (%) at hr 0 (3 wt % in 50% ethanol): 97.9% | Purity (%) at hr 24 (3 wt % in 50% ethanol): 97.8% | Purity(%) at Day 14 (3 wt % in 50% ethanol): 97.6% | Purity(%) at Day 28 (3 wt % in 50% ethanol): 97.5% | Purity (%) at Day 3 (5 wt % in 50% ethanol): 97.8% | Purity (%) at Day 7 (5 wt % in 50% ethanol): 97.7% | Purity (%) at hr 0 (5 wt % in 50% ethanol): 98.0% | Purity (%) at hr 24 (5 wt % in 50% ethanol): 97.8% | Purity(%) at Day 14 (5 wt % in 50% ethanol): 97.6% | Purity(%) at Day 28 (5 wt % in 50% ethanol): 97.6% | Purity (%) at Day 3 (10 wt % in 50% ethanol): 97.8% | Purity (%) at Day 7 (10 wt % in 50% ethanol): 97.8% | Purity (%) at hr 0 (10 wt % in 50% ethanol): 97.9% | Purity (%) at hr 24 (10 wt % in 50% ethanol): 97.8% | Purity(%) at Day 14 (10 wt % in 50% ethanol): 97.7% | Purity(%) at Day 28 (10 wt % in 50% ethanol): 97.6%

Stability of common ester over the concentrations tested: quite stable | Purity (%) at Day 3 (0.01 wt % in 50% ethanol): 97.4% | Purity (%) at Day 7 (0.01 wt % in 50% ethanol): 97.1% | Purity (%) at hr 0 (0.01 wt % in 50% ethanol): 98.4% | Purity (%) at hr 24 (0.01 wt % in 50% ethanol): 98.3% | Purity(%) at Day 14 (0.01 wt % in 50% ethanol): 96.5% | Purity(%) at Day 21 (0.01 wt % in 50% ethanol): 95.9% | Purity(%) at Day 28 (0.01 wt % in 50% ethanol): 95.1% | Purity (%) at Day 3 (0.1 wt % in 50% ethanol): 97.6% | Purity (%) at Day 7 (0.1 wt % in 50% ethanol): 97.3% | Purity (%) at hr 0 (0.1 wt % in 50% ethanol): 98.5% | Purity (%) at hr 24 (0.1 wt % in 50% ethanol): 98.4% | Purity(%) at Day 14 (0.1 wt % in 50% ethanol): 96.8% | Purity(%) at Day 21 (0.1 wt % in 50% ethanol): 96.5% | Purity(%) at Day 28 (0.1 wt % in 50% ethanol): 95.7% | Purity (%) at Day 3 (1 wt % in 50% ethanol): 97.9% | Purity (%) at Day 7 (1 wt % in 50% ethanol): 97.6% | Purity (%) at hr 0 (1 wt % in 50% ethanol): 98.7% | Purity (%) at hr 24 (1 wt % in 50% ethanol): 98.5% | Purity(%) at Day 14 (1 wt % in 50% ethanol): 97.2% | Purity(%) at Day 21 (1 wt % in 50% ethanol): 96.8% | Purity(%) at Day 28 (1 wt % in 50% ethanol): 96.1% | Purity (%) at Day 3 (3 wt % in 50% ethanol): 98.2% | Purity (%) at Day 7 (3 wt % in 50% ethanol): 97.8% | Purity (%) at hr 0 (3 wt % in 50% ethanol): 98.7% | Purity (%) at hr 24 (3 wt % in 50% ethanol): 98.6% | Purity(%) at Day 14 (3 wt % in 50% ethanol): 97.4% | Purity(%) at Day 21 (3 wt % in 50% ethanol): 97.0% | Purity(%) at Day 28 (3 wt % in 50% ethanol): 96.5% | Purity (%) at Day 3 (5 wt % in 50% ethanol): 98.5% | Purity (%) at Day 7 (5 wt % in 50% ethanol): 98.4% | Purity (%) at hr 0 (5 wt % in 50% ethanol): 98.7% | Purity (%) at hr 24 (5 wt % in 50% ethanol): 98.6% | Purity(%) at Day 14 (5 wt % in 50% ethanol): 98.2% | Purity(%) at Day 21 (5 wt % in 50% ethanol): 97.8% | Purity(%) at Day 28 (5 wt % in 50% ethanol): 97.1% | Purity (%) at Day 3 (10 wt % in 50% ethanol): 98.6% | Purity (%) at Day 7 (10 wt % in 50% ethanol): 98.5% | Purity (%) at hr 0 (10 wt % in 50% ethanol): 98.8% | Purity (%) at hr 24 (10 wt % in 50% ethanol): 98.7% | Purity(%) at Day 14 (10 wt % in 50% ethanol): 98.3% | Purity(%) at Day 21 (10 wt % in 50% ethanol): 97.9% | Purity(%) at Day 28 (10 wt % in 50% ethanol): 97.3%
SMILES: CC(C)OC(=O)C(N)Cc1ccccc1 (stereo not drawn) [Isopropyl 2-amino-3-phenylpropanoate, reference compound]
